What was measured:
Type in all cases: cell-based
human CYP11B2 [1] = target: T1, human CYP11B2 (Homo sapiens (Human), UniProt P19099); assay: V79-Human-CYP11B2 cell assay; details: V79 cells expressing human CYP11B2; 125 nM 11-deoxycorticosterone; aldosterone by HTRF
Method: (§1) V79 cell lines stably expressing the either the human CYP11B2 or the human CYP11B1 enzyme were generated using a standard transfection protocol. V79 cells were transfected with plasmids pTriEx3-Hygro-hCyp11B2 or pTriEx3-Hygro-hCyp11B1 using Lipofectamine2000 reagent. V79 cells that stably express the human CYP11B2 or human CYP11B1 enzyme were selected for and maintained in DMEM supplemented with 10% FBS and 400 μg/mL hygromycin for 2 weeks. Single cell clones were generated by infinite dilution in DMEM supplemented with 10% FBS and 400 μg/mL hygromycin until single colonies were obtained. […] For testing of inhibitors, cells were harvested at 80% confluency with 0.05% Trypsan-EDTA, washed once in PBS, and reconstituted in DMEM+0.1% BSA media at a cell concentration of 600,000 cells/mL for the CYP11B2 assay and 280,000 cells/mL for the CYP11B1 assay. 25 μL of cells were added to a 384 well tissue culture treated plate and mixed with 0.3 μL of inhibitor or DMSO (1% final DMSO concentration) for 1 hour at 37° C., 5% CO2. After pre-incubation with inhibitor, the reaction was initiated by adding 5 μL of substrate (final concentration of 125 nM 11-deoxycorticosterone for the CYP11B2 assay or 250 nM 11-deoxycortisol for the CYP11B1 assay). The reaction was carried out for 3 hours at 37° C., 5% CO2 and was stopped by harvesting the supernatants. The amount of product in the supernatant (aldosterone for CYP11B2 assay and cortisol for the CYP11B1 assay) was measured using HTRF-based assay kit (Aldosterone HTRF-CisBio#64ALDPEB, Cortisol HTRF-CisBio #63IDC002-CORT). IC50s for the inhibitor were determined by plotting the amount of product formed against the concentration of inhibitor using sigmoidal dose-response curve (variable slope) fit in GraphPad.

human CYP11B1 [2] = target: T2, human CYP11B1 (Homo sapiens (Human), UniProt P15538); assay: V79-Human-CYP11B1 cell assay; details: V79 cells expressing human CYP11B1; 250 nM 11-deoxycortisol; cortisol by HTRF
Method: V79 cell lines stably expressing the either the human CYP11B2 or the human CYP11B1 enzyme were generated using a standard transfection protocol. V79 cells were transfected with plasmids pTriEx3-Hygro-hCyp11B2 or pTriEx3-Hygro-hCyp11B1 using Lipofectamine2000 reagent. V79 cells that stably express the human CYP11B2 or human CYP11B1 enzyme were selected for and maintained in DMEM supplemented with 10% FBS and 400 μg/mL hygromycin for 2 weeks. Single cell clones were generated by infinite dilution in DMEM supplemented with 10% FBS and 400 μg/mL hygromycin until single colonies were obtained. Clones V79-hCYP11B2-CLE9 and V79-hCYP11B1-CL8C7, were determined to produce the most aldosterone and cortisol, respectively, and were selected for inhibitor screening. For testing of inhibitors, cells were harvested at 80% confluency with 0.05% Trypsan-EDTA, washed once in PBS, and reconstituted in DMEM+0.1% BSA media at a cell concentration of 600,000 cells/mL for the CYP11B2 assay and 280,000 cells/mL for the CYP11B1 assay. 25 μL of cells were added to a 384 well tissue culture treated plate and mixed with 0.3 μL of inhibitor or DMSO (1% final DMSO concentration) for 1 hour at 37° C., 5% CO2. After pre-incubation with inhibitor, the reaction was initiated by adding 5 μL of substrate (final concentration of 125 nM 11-deoxycorticosterone for the CYP11B2 assay or 250 nM 11-deoxycortisol for the CYP11B1 assay). The reaction was carried out for 3 hours at 37° C., 5% CO2 and was stopped by harvesting the supernatants. The amount of product in the supernatant (aldosterone for CYP11B2 assay and cortisol for the CYP11B1 assay) was measured using HTRF-based assay kit (Aldosterone HTRF-CisBio#64ALDPEB, Cortisol HTRF-CisBio #63IDC002-CORT). IC50s for the inhibitor were determined by plotting the amount of product formed against the concentration of inhibitor using sigmoidal dose-response curve (variable slope) fit in GraphPad.

human CYP11B2 [3] = target: T1, human CYP11B2; assay: V79-Human-CYP11B2 cell assay, modified protocol; details: V79 cells expressing human CYP11B2
Method: as §1
(§2) For the CYP11B2 assay, cells were reconstituted in DMEM+0.1% BSA media at a cell concentration of 600,000 cells/mL and for the CYP11B1 assay cells were reconstituted in DMEM+0.1% BSA media at a cell concentration of 280,000 cells/mL. 25 μl of cells were added to a 384 well tissue culture treated plate and mixed with […] or DMSO (1% final DMSO concentration) for 1 hour at 37° C., 5% CO2.

human CYP11B1 [4] = target: T2, human CYP11B1; assay: V79-Human-CYP11B1 cell assay, modified protocol; details: V79 cells expressing human CYP11B1
Method: as §1, §2

T1 sequence (P19099 25-503): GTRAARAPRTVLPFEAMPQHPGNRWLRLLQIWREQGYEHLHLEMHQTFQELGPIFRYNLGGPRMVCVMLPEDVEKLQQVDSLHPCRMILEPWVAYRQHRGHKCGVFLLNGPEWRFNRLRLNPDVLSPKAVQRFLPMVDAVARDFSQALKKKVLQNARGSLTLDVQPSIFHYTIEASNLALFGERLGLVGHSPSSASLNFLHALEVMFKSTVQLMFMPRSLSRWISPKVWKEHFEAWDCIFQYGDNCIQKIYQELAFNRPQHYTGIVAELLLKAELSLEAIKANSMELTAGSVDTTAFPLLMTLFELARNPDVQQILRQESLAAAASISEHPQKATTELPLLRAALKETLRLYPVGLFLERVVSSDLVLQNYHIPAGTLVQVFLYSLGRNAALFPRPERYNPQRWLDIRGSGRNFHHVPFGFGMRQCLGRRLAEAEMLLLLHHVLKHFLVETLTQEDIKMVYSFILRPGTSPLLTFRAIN
T2 sequence (P15538 25-503): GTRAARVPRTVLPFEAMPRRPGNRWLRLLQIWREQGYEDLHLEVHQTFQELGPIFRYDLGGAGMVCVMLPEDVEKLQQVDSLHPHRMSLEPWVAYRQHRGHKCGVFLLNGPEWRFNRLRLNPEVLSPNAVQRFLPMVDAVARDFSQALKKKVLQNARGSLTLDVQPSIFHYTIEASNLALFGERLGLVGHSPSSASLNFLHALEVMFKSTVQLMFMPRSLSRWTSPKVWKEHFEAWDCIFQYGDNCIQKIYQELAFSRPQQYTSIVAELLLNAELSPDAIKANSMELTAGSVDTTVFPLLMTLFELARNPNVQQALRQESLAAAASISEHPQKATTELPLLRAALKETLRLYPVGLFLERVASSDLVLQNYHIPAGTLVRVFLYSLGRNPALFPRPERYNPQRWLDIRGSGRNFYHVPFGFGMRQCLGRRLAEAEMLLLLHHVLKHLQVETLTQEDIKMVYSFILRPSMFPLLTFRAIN

Row | Structure (SMILES) | IC50 (human CYP11B2 [1]) | IC50 (human CYP11B1 [2]) | IC50 (human CYP11B2 [3]) | IC50 (human CYP11B1 [4])
1 | CC(=O)N1CCc2cc(-c3cncc(F)c3)ccc21 [Example 1, 1-(5-(5-fluoropyridin-3-yl)indolin-1-yl)ethanone] | 0.11 µM | > 10 µM |  | 
2 | CC(=O)N1CCc2cc(-c3cncc(F)c3)cc(Cl)c21 [Example 2, 1-(7-chloro-5-(5-fluoropyridine-3-yl)indolin-1-yl)ethanone] | 0.012 µM | 7.9 µM |  | 
3 | CC(=O)N1CCc2cc(-c3cnccc3C(F)(F)F)cc(Cl)c21 [Example 7, 1-(7-chloro-5-(4-(trifluoromethyl)pyridine-3-yl)indolin-1-yl)ethanone] | 0.005 µM | 0.61 µM |  | 
4 | CC(=O)N1CCc2cc(-c3cncc(C#N)c3C)cc(Cl)c21 [Example 10, 5-(1-acetyl-7-chloroindolin-5-yl) 4-methylnicotinotrile] | 0.035 µM | 1.6 µM |  | 
5 | CC(=O)N1CCc2cc(-c3cccnc3)cc(F)c21 [Example 12, 1-(7-fluoro-5-(pyridine-3-yl)indolin-1-yl) ethanone] | 0.0049 µM | 0.9 µM |  | 
6 | CC(=O)N1CCc2cc(-c3cncc(C#N)c3)cc(F)c21 [Example 16, 5-(1-acetyl-7-fluoroindolin-5-yl)nicotinonitrile] | 0.097 µM | > 10 µM |  | 
7 | CC(=O)N1CCc2cc(-c3cncc(C#N)c3C)cc(F)c21 [Example 17, 5-(1-acetyl-7-fluoroindolin-5-yl)-4-methylnicotino nitrile] | 0.012 µM | 0.54 µM |  | 
8 | CC(=O)N1CCc2cc(-c3cncc(F)c3)cc(F)c21 [Example 18, 1-(7-fluoro-5-(5-fluoropyridine-3-yl)indolin-1-yl)-ethanone] | 0.015 µM | 1.1 µM |  | 
9 | CCc1c(F)cncc1-c1cc(F)c2c(c1)CCN2C(C)=O [Example 20, 1-(5-(4-ethyl-5-fluoropyridine-3-yl)-7-fluoroindolin-1-yl)ethanone] | 0.0016 µM | 0.5 µM |  | 
10 | CCC(=O)N1CCc2cc(-c3cccnc3)ccc21 [Example 21, 1-propanoyl-5-pyridin-3-yl-2,3-dihydro-1H-indole] |  |  | 0.228 µM | 4.74 µM
11 | COc1ccc(C(=O)N2CCc3cc(-c4cccnc4)ccc32)cc1 [Example 25, 1-[(4-methoxy-phenyl)carbonyl]-5-pyridin-3-yl-2,3-dihydro-1H-indole] |  |  | 1.43 µM | > 5 µM
12 | O=C(Cc1ccccc1)N1CCc2cc(-c3cccnc3)ccc21 [Example 26, 1-(Phenylacetyl)-5-pyridin-3-yl-2,3-dihydro-1H-indole] |  |  | 3.07 µM | > 5 µM
13 | CCC(=O)N1CCc2cc(-c3cncc4ccccc34)ccc21 [Example 29, 4-(1-propanoyl-2,3-dihydro-1H-indol-5-yl)isoquinoline] |  |  | 0.0028 µM | 0.516 µM
14 | O=C(C1CC1)N1CCc2cc(-c3cncc4ccccc34)ccc21 [Example 31, 4-[1-(cyclopropyl-carbonyl)-2,3-dihydro-1H-indol-5-yl]isoquinoline] |  |  | 0.152 µM | 6.09 µM
15 | CC(=O)N1CCc2cc(-c3cccnc3)cc(Cl)c21 [Example 43, 1-(7-chloro-5-(pyridin-3-yl)indolin-1-yl)ethanone] | 0.0074 µM | 0.57 µM |  | 
16 | CC(=O)N1CCc2cc(-c3cccnc3)c(Cl)cc21 [Example 44, 1-(6-chloro-5-(pyridin-3-yl)indoline-1-yl)ethanone] | 0.64 µM | 0.47 µM |  | 
17 | CC(=O)N1CCc2cc(-c3cncc(F)c3)c(Cl)cc21 [Example 45, 1-(6-chloro-5-(5-fluoropyridine-3-yl)indolin-1-yl)ethanone] | 0.81 µM | 0.76 µM |  | 
18 | CCc1c(F)cncc1-c1cc2c(cc1Cl)N(C(C)=O)CC2 [Example 46, 1-(6-chloro-5-(4-ethyl-5-fluoropyridine-3-yl)indolin-1-yl)ethanone] | 0.62 µM | 0.78 µM |  | 
19 | CC(=O)N1CCc2cc(-c3cncc(F)c3)c(F)cc21 [Example 48, 1-(6-fluoro-5-(5-fluoropyridin-3-yl)indolin-1-yl)ethanone] |  | > 10 µM |  | 
20 | CCc1c(F)cncc1-c1cc2c(cc1F)N(C(C)=O)CC2 [Example 49, 1-(5-(4-ethyl-5-fluoropyridin-3-yl)-6-fluoroindolin-1-yl)ethanone] | 0.17 µM | 4 µM |  | 

Results, then the compound that gave them:

Row | IC50 (human CYP11B2 [1]) | IC50 (human CYP11B1 [2]) | IC50 (human CYP11B2 [3]) | IC50 (human CYP11B1 [4]) | Structure (SMILES)
21 | 0.0041 µM | 0.13 µM |  |  | COc1cncc(-c2cc(Cl)c3c(c2)CCN3C(C)=O)c1 [Example 3, 1-(7-chloro-5-(5-methoxypyridin-3-yl)indolin-1-yl)ethanone]
22 | 0.0012 µM | 0.026 µM |  |  | CC(=O)N1CCc2cc(-c3cncc([C@](C)(O)C(F)(F)F)c3)cc(Cl)c21 [Example 4, (S)-1-(7-chloro-5-(5-(1,1,1,-trifluoro-2-hydroxypropan-2-yl)pydine-3-yl)indolin-1-yl)ethanone]
23 | 0.0024 µM | 0.053 µM |  |  | CC(=O)N1CCc2cc(-c3cncc([C@@](C)(O)C(F)(F)F)c3)cc(Cl)c21 [Example 5, (R)-1-(7-chloro-5-(5-(1,1,1,-trifluoro-2hydroxypropan-2-yl)pyridine-3-yl)indolin-1-yl)ethanone]
24 | 0.0075 µM | 0.4 µM |  |  | CC(=O)N1CCc2cc(-c3cncc(C(F)(F)F)c3)cc(Cl)c21 [Example 6, 1-(7-chloro-5-(5-(triuoromethyl)pyridine-3-yl)indolin-1-yl)ethanone]
25 | 0.0023 µM | 0.4 µM |  |  | CCc1c(F)cncc1-c1cc(Cl)c2c(c1)CCN2C(C)=O [Example 9, 1-(7-chloro-5-(4-ethyl-5-fluoropyridin-3-yl)indolin-1-yl)ethanone]
26 | 0.0007 µM | 0.06 µM |  |  | CC(=O)N1CCc2cc(-c3cncc4ccccc34)cc(Cl)c21 [Example 11, 1-(7-chloro-5-(isoquinolin-4-yl)indolin-1-yl)ethanone]
27 | 0.0021 µM | 0.023 µM |  |  | CC(=O)N1CCc2cc(-c3cncc([C@](C)(O)C(F)(F)F)c3)cc(F)c21 [Example 13, (S)-1-(7-fluoro-5-(5-(1,1,1-trifluoro-2-hydroxypropan-2-yl)pyridin-3-yl)indolin-1-yl)ethanone]
28 | 0.0008 µM | 0.013 µM |  |  | CC(=O)N1CCc2cc(-c3cncc([C@@](C)(O)C(F)(F)F)c3)cc(F)c21 [Example 14, (R)-1-(7-fluoro-5-(5-(1,1,1-trifluoro-2-hydroxypropan-2-yl)pyridin-3-yl)indolin-1-l)ethanone]
29 | 0.001 µM | 0.1 µM |  |  | CC(=O)N1CCc2cc(-c3cncc(F)c3C)cc(F)c21 [Example 19, 1-(7-fluoro-5-(5-fluoro-4-methylpyridine-3-yl)indolin-1-yl)-ethanone]
30 | 0.18 µM | 0.38 µM |  |  | CC(=O)N1CCc2cc(-c3cccnc3)c(F)cc21 [Example 47, 1-(6-fluoro-5-(pyridin-3-yl)indon-1-yl)ethanone]
